In US9751887B2, “Imidazo[1,2-b]pyridazine derivatives as kinase inhibitors” (Daiichi Sankyo Company, Limited, priority 2012, dated 2017):

Key:
[1] = molecular target: T1, ROS1 (Homo sapiens, UniProt P08922); assay: ROS1 autophosphorylation inhibitory activity evaluation (ADP-Glo); assay type: biochemical; conditions: 200 nM inactive ROS1, ATP 1 mM, 25° C. 1.5 hours, ADP generated, four separate measurements
T1 construct: purchased Carna Biosciences 08-163
How it was run: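 IC50 was derived by curve fitting of ADP output measured with ADP-Glo reagents. The output reflects ROS1 self-phosphorylation over 1.5 hours at 25° C. Buffer was HEPES pH 7.5 with MgCl2, Brij-58 and DTT, and ATP was 1 mM final.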

[2] = tested on: HCC78 cells having ROS1 fusion gene; assay: HCC78 cell growth assay (CellTiter-Glo); assay type: cell-based; conditions: Homo sapiens, HCC78, 72 h, 72 hours culture, 2% FBS medium, luminescence, four separate measurements; read-out: growth inhibitory effect on HCC78 cells having ROS1 fusion gene IC50
[3] = molecular target: T1, ROS1; assay: ROS1 kinase inhibitory activity evaluation (mobility shift, EZ Reader II); assay type: biochemical; conditions: ROS1 25 pg/μL, FL-Peptide 22 substrate, three separate measurements
Description: Next, a substrate reaction solution was prepared. […] Then, the reaction stop solution was added thereto at a concentration of 40 μL/well. Substrate phosphorylation intensity was measured using EZ Reader II (Caliper Life Sciences).

T1 sequence (P08922 28-2347): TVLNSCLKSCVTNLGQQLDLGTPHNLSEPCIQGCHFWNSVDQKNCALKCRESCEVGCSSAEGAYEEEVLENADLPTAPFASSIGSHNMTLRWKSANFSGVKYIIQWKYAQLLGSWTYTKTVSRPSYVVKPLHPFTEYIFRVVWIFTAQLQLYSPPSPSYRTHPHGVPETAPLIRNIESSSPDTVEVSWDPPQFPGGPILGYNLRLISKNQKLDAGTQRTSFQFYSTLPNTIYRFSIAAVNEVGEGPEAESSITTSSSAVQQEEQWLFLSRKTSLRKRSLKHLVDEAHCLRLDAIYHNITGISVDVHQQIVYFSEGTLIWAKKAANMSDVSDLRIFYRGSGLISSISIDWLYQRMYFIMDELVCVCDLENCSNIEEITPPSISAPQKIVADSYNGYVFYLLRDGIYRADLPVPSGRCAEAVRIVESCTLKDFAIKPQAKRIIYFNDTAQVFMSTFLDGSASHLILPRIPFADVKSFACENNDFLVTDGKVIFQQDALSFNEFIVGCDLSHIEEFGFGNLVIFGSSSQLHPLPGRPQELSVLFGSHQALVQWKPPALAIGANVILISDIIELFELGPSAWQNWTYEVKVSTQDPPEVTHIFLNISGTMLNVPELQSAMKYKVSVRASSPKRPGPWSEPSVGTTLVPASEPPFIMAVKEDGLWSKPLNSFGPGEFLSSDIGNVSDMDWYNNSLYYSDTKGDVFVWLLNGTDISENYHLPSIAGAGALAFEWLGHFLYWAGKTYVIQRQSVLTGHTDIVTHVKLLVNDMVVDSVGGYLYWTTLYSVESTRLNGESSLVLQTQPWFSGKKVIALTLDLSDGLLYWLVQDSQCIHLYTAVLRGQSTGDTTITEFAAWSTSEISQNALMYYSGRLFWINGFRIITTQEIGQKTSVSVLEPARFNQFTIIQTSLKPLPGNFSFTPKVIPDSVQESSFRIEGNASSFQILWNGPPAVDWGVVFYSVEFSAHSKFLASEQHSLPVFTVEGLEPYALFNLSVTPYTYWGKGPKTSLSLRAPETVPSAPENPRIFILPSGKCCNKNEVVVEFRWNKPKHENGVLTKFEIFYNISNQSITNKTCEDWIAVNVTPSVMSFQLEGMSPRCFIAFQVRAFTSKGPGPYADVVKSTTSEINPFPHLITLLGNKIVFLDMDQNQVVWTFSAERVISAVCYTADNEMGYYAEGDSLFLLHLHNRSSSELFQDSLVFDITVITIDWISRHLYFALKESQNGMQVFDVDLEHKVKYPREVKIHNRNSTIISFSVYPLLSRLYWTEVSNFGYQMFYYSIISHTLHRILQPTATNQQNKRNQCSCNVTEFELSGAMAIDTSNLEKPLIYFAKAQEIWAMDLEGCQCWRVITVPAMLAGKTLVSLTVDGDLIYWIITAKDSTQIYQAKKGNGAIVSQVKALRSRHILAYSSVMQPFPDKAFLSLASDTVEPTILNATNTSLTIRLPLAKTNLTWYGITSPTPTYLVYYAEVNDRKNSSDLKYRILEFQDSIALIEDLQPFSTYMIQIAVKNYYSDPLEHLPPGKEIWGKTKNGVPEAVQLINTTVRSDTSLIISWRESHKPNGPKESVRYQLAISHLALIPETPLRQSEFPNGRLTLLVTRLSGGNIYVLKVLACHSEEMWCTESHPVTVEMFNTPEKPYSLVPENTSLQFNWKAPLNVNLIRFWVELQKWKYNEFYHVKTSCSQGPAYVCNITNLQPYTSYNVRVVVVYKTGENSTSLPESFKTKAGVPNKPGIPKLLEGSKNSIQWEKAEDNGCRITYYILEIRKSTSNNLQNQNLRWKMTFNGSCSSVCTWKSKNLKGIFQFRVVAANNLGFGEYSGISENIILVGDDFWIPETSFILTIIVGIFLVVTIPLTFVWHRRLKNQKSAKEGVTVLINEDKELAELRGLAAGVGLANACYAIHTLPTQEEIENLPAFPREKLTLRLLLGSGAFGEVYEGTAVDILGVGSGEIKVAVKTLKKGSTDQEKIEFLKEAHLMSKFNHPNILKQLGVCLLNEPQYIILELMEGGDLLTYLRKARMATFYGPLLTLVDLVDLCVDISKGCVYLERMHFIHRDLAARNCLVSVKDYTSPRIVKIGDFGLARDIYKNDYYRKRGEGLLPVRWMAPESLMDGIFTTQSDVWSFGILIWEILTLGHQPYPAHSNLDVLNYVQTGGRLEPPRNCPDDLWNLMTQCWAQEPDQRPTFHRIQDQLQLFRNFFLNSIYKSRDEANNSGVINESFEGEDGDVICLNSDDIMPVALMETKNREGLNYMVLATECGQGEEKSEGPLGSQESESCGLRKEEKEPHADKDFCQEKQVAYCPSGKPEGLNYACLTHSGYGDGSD

| SMILES | IC50 [1] | IC50 [2] | IC50 [3] |
| --- | --- | --- | --- |
| C[C@H](N)COc1cccc(-c2cnc3ccc(N[C@H](C)c4cccc(F)c4)nn23)c1 [Example 65, 3-[3-[(2S)-2-Aminopropoxy]phenyl]-N-[(1R)-1-(3-fluorophenyl)ethyl]imidazo[1,2-b]pyridazin-6-amine] | < 20 nM | 20 to 100 nM | 1 to 10 nM |
| c1ccc(CNc2ccc3ncc(-c4cccc(O[C@@H]5CCNC5)c4)n3n2)cc1 [Example 4, N-Benzyl-3-[3-[(3R)-pyrrolidin-3-yl]oxyphenyl]imidazo[1,2-b]pyridazin-6-amine] | 100 to 150 nM | 100 to 600 nM | 1 to 10 nM |
| C[C@@H](Nc1ccc2ncc(-c3ccc(OC[C@@H]4CCN4)c(F)c3)n2n1)c1cccc(F)c1 [Example 44, 3-[4-[[(2S)-Azetidin-2-yl]methoxy]-3-fluoro-phenyl]-N-[(1R)-1-(3-fluorophenyl)ethyl]imidazo[1,2-b]pyridazin-6-amine] | < 20 nM | < 20 nM | < 1 nM |
| C[C@@H](Nc1ccc2ncc(-c3ccc(OCCN(C)C)cc3)n2n1)c1cccc(F)c1 [Example 69, 3-[4-(2-Dimethylaminoethoxy)phenyl]-N-[(1R)-1-(3-fluorophenyl)ethyl]imidazo[1,2-b]pyridazin-6-amine] | < 20 nM | < 20 nM | < 1 nM |
| Fc1cccc(COc2ccc3ncc(-c4ccc(OC[C@H]5CCCN5)cc4)n3n2)c1 [Example 11, 6-[(3-Fluorophenyl)methoxy]-3-[4-[[(2R)-pyrrolidin-2-yl]methoxy]phenyl]imidazo[1,2-b]pyridazine] | 20 to 100 nM | 100 to 600 nM | 1 to 10 nM |
| C[C@@H](Nc1ccc2ncc(-c3ccc(OCC4(N)CC4)cc3)n2n1)c1cccc(F)c1 [Example 39, 3-[4-[(1-Aminocyclopropyl)methoxy]phenyl]-N-[(1R)-1-(3-fluorophenyl)ethyl]imidazo[1,2-b]pyridazin-6-amine] | < 20 nM | 20 to 100 nM | < 1 nM |
| C[C@@H](Nc1ccc2ncc(-c3ccc(OCCCN)cc3)n2n1)c1cccc(F)c1 [Example 28, 3-[4-(3-Aminopropoxy)phenyl]-N-[(1R)-1-(3-fluorophenyl)ethyl]imidazo[1,2-b]pyridazin-6-amine] | < 20 nM | 20 to 100 nM | < 1 nM |
| C[C@@H](Nc1ccc2ncc(-c3ccc(OC[C@@H]4CCN4)cc3F)n2n1)c1cccc(F)c1 [Example 43, 3-[4-[[(2S)-Azetidin-2-yl]methoxy]-2-fluoro-phenyl]-N-[(1R)-1-(3-fluorophenyl)ethyl]imidazo[1,2-b]pyridazin-6-amine] | < 20 nM | < 20 nM | < 1 nM |
| Fc1cccc(COc2ccc3ncc(-c4ccc(OC[C@@H]5CCCN5)cc4)n3n2)c1 [Example 12, 6-[(3-Fluorophenyl)methoxy]-3-[4-[[(2S)-pyrrolidin-2-yl]methoxy]phenyl]imidazo[1,2-b]pyridazine] | 20 to 100 nM | 100 to 600 nM | 1 to 10 nM |
| C[C@@H](Nc1ccc2ncc(-c3ccc(OCCNC4CC4)cc3)n2n1)c1cccc(F)c1 [Example 37, 3-[4-[2-(Cyclopropylamino)ethoxy]phenyl]-N-[(1R)-1-(3-fluorophenyl)ethyl]imidazo[1,2-b]pyridazin-6-amine] | 20 to 100 nM | 20 to 100 nM | < 1 nM |
| CNC(C)COc1ccc(-c2cnc3ccc(N[C@H](C)c4cccc(F)c4)nn23)cc1 (stereo partly drawn) [Example 38, N-[(1R)-1-(3-Fluorophenyl)ethyl]-3-[4-[2-(methylamino)propoxy]phenyl]imidazo[1,2-b]pyridazin-6-amine] | < 20 nM | < 20 nM | < 1 nM |
| CC[C@@H](N)COc1ccc(-c2cnc3ccc(N[C@H](C)c4cccc(F)c4)nn23)cc1 [Example 52, 3-[4-[(2R)-2-Aminobutoxy]phenyl]-N-[(1R)-1-(3-fluorophenyl)ethyl]imidazo[1,2-b]pyridazin-6-amine] | < 20 nM | 20 to 100 nM | < 1 nM |
| C[C@@H](Nc1ccc2ncc(-c3ccc(OC[C@@H]4CCCN4)cc3)n2n1)c1ccccc1 [Example 19, N-[(1R)-1-Phenylethyl]-3-[4-[[(2S)-pyrrolidin-2-yl]methoxy]phenyl]imidazo[1,2-b]pyridazin-6-amine] | < 20 nM | 100 to 600 nM | 1 to 10 nM |
| C[C@@H](Nc1ccc2ncc(-c3ccc(O[C@@H]4CCNC4)cc3)n2n1)c1cccc(F)c1 [Example 22, N-[(1R)-1-(3-Fluorophenyl)ethyl]-3-[4-[(3R)-pyrrolidin-3-yl]oxyphenyl]imidazo[1,2-b]pyridazin-6-amine] | < 20 nM | 20 to 100 nM | < 1 nM |
| C[C@@H](Nc1ccc2ncc(-c3ccc(OC[C@@H]4CCNC4)cc3)n2n1)c1cccc(F)c1 [Example 23, N-[(1R)-1-(3-Fluorophenyl)ethyl]-3-[4-[[(3R)-pyrrolidin-3-yl]methoxy]phenyl]imidazo[1,2-b]pyridazin-6-amine] | < 20 nM | 100 to 600 nM | < 1 nM |

Continued, values first:

| IC50 [1] | IC50 [2] | IC50 [3] | SMILES |
| --- | --- | --- | --- |
| < 20 nM | 20 to 100 nM | < 1 nM | CN(Cc1cccc(F)c1)c1ccc2ncc(-c3ccc(N4CC(N)CC4=O)cc3)n2n1 (stereo not drawn) [Example 82, 4-Amino-1-[4-[6-[(3-fluorophenyl)methyl-methylamino]imidazo[1,2-b]pyridazin-3-yl]phenyl]pyrrolidin-2-one] |
| 20 to 100 nM | 20 to 100 nM | 1 to 10 nM | Cc1ccc(F)cc1COc1ccc2ncc(-c3ccc(N4C[C@@H](N)CC4=O)cc3)n2n1 [Example 103, (4S)-4-Amino-1-[4-[6-[(5-fluoro-2-methylphenyl)methoxy]imidazo[1,2-b]pyriazin-3-yl]phenyl]pyrrolidin-2-one] |
| 20 to 100 nM | 20 to 100 nM | 1 to 10 nM | CN(Cc1cccc(F)c1)c1ccc2ncc(-c3ccc(N4CC(C)(N)CC4=O)cc3)n2n1 (stereo not drawn) [Example 84, 4-Amino-1-[4-[6-[(3-fluorophenyl)methyl-methylamino]imidazo[1,2-b]pyridazin-3-yl]phenyl]-4-methylpyrrolidin-2-one] |
| 20 to 100 nM | 100 to 600 nM | 10 to 60 nM | CC(Oc1ccc2ncc(-c3ccc(N4C[C@@H](N)CC4=O)cc3)n2n1)c1nccs1 (stereo partly drawn) [Example 105, (4S)-4-Amino-1-[4-[6-(1-thiazol-2-ylethoxy)imidazo[1,2-b]pyridazin-3-yl]phenyl]pyrrolidin-2-one] |
| < 20 nM | < 20 nM | 1 to 10 nM | C[C@@H](Nc1ccc2ncc(-c3ccc(OCCN(C)C)nc3)n2n1)c1cccc(F)c1 [Example 71, 3-[6-(2-Dimethylaminoethoxy)-3-pyridyl]-N-[(1R)-1-(3-fluorophenyl)ethyl]imidazo[1,2-b]pyridazin-6-amine] |
| 20 to 100 nM | 20 to 100 nM | 1 to 10 nM | CN(Cc1cccc(F)c1)c1ccc2ncc(-c3ccc(N4CC(C)(N)CC4=O)cc3)n2n1 (single isomer, unassigned) [Example 87, 4-Amino-1-[4-[6-[(3-fluorophenyl)methyl-methylamino]imidazo[1,2-b]pyridazin-3-yl]phenyl]-4-methylpyrrolidin-2-one] |
| 20 to 100 nM | 20 to 100 nM | 1 to 10 nM | CN[C@H]1CC(=O)N(c2ccc(-c3cnc4ccc(O[C@H](C)c5cncc(F)c5)nn34)cc2)C1 [Example 108, (4S)-1-[4-[6-[(1R)-1-(5-Fluoro-3-pyridyl)ethoxy]imidazo[1,2-b]pyridazin-3-yl]phenyl]-4-(methylamino)pyrrolidin-2-one] |
| 20 to 100 nM | 100 to 600 nM | 10 to 60 nM | CN(Cc1cncc(F)c1)c1ccc2ncc(-c3ccc(N4C[C@@H](N)CC4=O)c(C#N)c3)n2n1 [Example 130] |
| < 20 nM | < 20 nM | 1 to 10 nM | CC(Oc1ccc2ncc(-c3ccc(N4C[C@@H](N)CC4=O)cc3)n2n1)c1cc(Cl)n(C)n1 (stereo partly drawn) [Example 113, (4S)-4-Amino-1-[4-[6-[1-(5-chloro-1-methylpyrazol-3-yl)ethoxy]imidazo[1,2-b]pyridazin-3-yl]phenyl]pyrrolidin-2-one] |
| 20 to 100 nM | 20 to 100 nM | 1 to 10 nM | CN(Cc1cccc(F)c1F)c1ccc2ncc(-c3ccc(N4C[C@@H](N)CC4=O)nc3)n2n1 [Example 132, (4S)-4-Amino-1-[5-[6-[(2,3-difluorophenyl)methyl-methylamino]imidazo[1,2-b]pyridazin-3-yl]-2-pyridyl]pyrrolidin-2-one] |
| 20 to 100 nM | 20 to 100 nM | < 1 nM | CC1(N)CN(c2ccc(-c3cnc4ccc(OCc5cccc(F)c5)nn34)cc2)C(=O)C12CC2 (stereo not drawn) [Example 77, 7-Amino-5-[4-[6-[(3-fluorophenyl)methoxy]imidazo[1,2-b]pyridazin-3-yl]phenyl]-7-methyl-5-azaspiro[2.4]heptan-4-one] |
| < 20 nM | 20 to 100 nM | 1 to 10 nM | CCN(Cc1cccc(F)c1)c1ccc2ncc(-c3ccc(N4C[C@@H](N)CC4=O)cc3)n2n1 [Example 100] |
| 100 to 150 nM | 20 to 100 nM | 10 to 60 nM | CN(Cc1cncc(Cl)c1)c1ccc2ncc(-c3ccc(N4CC(C)(N)CC4=O)cc3)n2n1 (stereo not drawn) [Example 123, 4-Amino-1-[4-[6-[(5-chloro-3-pyridyl)methyl-methylamino]imidazo[1,2-b]pyridazin-3-yl]phenyl]-4-methylpyrrolidin-2-one] |
